These results are taken from patent US20090238799A1, “Conditionally-Immortalised Pancreatic Cells” (priority 2005, published 2009).

The test system of experiment [1] is Telomerase Reverse Transcriptase. Put plainly: Quantitative PCR of c-myc gene target induction in c-mycERTAM pancreatic cells. It counts as cell-based, human. Particulars: pancreatic cells with c-mycERTAM, FIG. 4. The procedure:
For the PCR of the c-myc-ER and insulin, the titanium taq PCR kit (Clontech laboratories) was used, see Table 2 for the primers used. The PCR reaction conditions were standard. The PCR machine used was GeneAmp PCR system 2700. For analysis, 15 μl of the PCR product was mixed with 5 μl 6× loading dye solution (MBI R0611) and loaded to a gel. A 100 bp DNA ladder (MBI SM0241), 6 μl, containing 3 μg DNA was also loaded. The gel was a 2% agarose gel consisting of: TAE buffer (Invitrogen 15558-034), agarose 2%, ethidium bromide, 267 μg/ml. The gel was run with an electrophoresis power supply E835 (Consort) in a tray HU13 (Jencons) and finally scanned with Fluor-S multimager (Biorad) and analysed with the software Quantity One (Biorad). For quantitative PCR, total RNA is extracted from cell pellets using Trizol (Invitrogen) and RNeasy (Qiagen) spin-columns, prior to reverse-transcription with Superscript II (Invitrogen) to synthesize the first strand of cDNA, which can be used as a template in quantitative PCR. Each gene transcript is detected with a sequence-specific primer-probe combination which accumulates a fluorescent signal during each PCR cycle, detected using a Lightcycler 480 instrument (Roche); the transcription of each gene is normalized against loading-level by assessing a number of house-keeping genes, and expressed as a proportion of a calibrator sample.

In experiment [2] the test system is cells containing the cmyERTam construct. Put plainly: Proliferation of cells containing the cmyERTam construct. Format: cell-based, human. As to conditions: removal promotes differentiation. The procedure: Before use, the following growth factors (GF) were added to HPM: 20 ng/ml epidermal growth factor (EGF) and 50 nM Gastrin I. After infection the pancreas cells were cultured in the presence of a supplement: 100 nM 4-Hydroxytamoxifen (4OHT).
Pancreas cells or preselected pancreas cell aggregates were transferred on fibronectin coated or uncoated vessels. Pancreatic cells were infected with virus supernatant and 4-8 μg/ml hexadimethrine bromide. After 8-16 hours of infection, fresh HPM was added and the infection cycle was repeated the next day. The infection was done in 10 cm Petri dishes with cell confluency ranging from 40% to 70%. After infection 4OHT was added to the medium. After 2 days from completed infection the cells were passaged for expansion and/or selection.

Take 4-hydroxytamoxifen [4-OHT]: the “Telomerase Reverse Transcriptase (hTERT) induction” value in experiment [1] was “induction”. The “effect of addition on proliferation” value in experiment [2] is recorded as “promotes proliferation”.
